Experimental findings from patent publication US12065443B2, “Compounds and pharmaceutical compositions thereof for the treatment of diseases” (priority 2017, dated 2024) are described below.

SMILES strings stand for the structures. Where two headings read alike, the source gives them in different places.

Experiment [1] concerns the target T1, SIK1 (Homo sapiens, UniProt P57059).
T1 construct: purchased Carna Biosciences 02-131
Nature of the experiment: biochemical. Put shortly:
(§1)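 Read-out: ^33P incorporated into AMARA peptide, counted on filter plates, taken as kinase activity. Reactions start on addition of labeled/unlabeled ATP to enzyme plus substrate and end with phosphoric acid. Controls: 1% DMSO (negative) and 10 μM staurosporine (positive), final.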

Experiment [2] has as its target T2, SIK2 (Homo sapiens, UniProt Q9H0K1).
T2 construct: purchased ThermoFisher Scientific PV4792
The experiment is described as follows: biochemical. The settings on record: 33P radioactive SIK kinase assay, AMARA peptide, 10 μM ATP. The essentials: as §1

In experiment [3] the target is T3, SIK3 (Homo sapiens, UniProt Q9Y2K2).
T3 construct: purchased SignalChem S12-11G-100
Nature of the experiment: biochemical. Put shortly: as §1

Experiment [4] has as its system LPS driven TNFα secretion in Peripheral Blood Mononuclear Cells (PBMC). Nature of the experiment: cells. The format is cell-based. The settings on record: Homo sapiens, LPS 1 ng/mL, supernatant after 18-20 h, ELISA.
Description: This assay measures the inhibition of LPS driven TNFα secretion by a test compound in Peripheral Blood Mononuclear Cells (PBMC), which in turn correlates with SIK inhibition.
PBMCs are isolated from human blood samples (buffy coats). The buffy coat is aseptically transferred into a 50 mL Falcon™ tube, and diluted 1/2 in Phosphate Buffered Saline (PBS). […] The tubes are centrifuged for 35 min at 400× g in temperature controlled centrifuge, without brake, at 25° C. PBMCs are aspirated from the white interface layer between sample and Lymphoprep. PBMCs are washed five times in PBS. […] The PBMCs are finally seeded at 400,000 PBMC/160 μL/96-well.
A compound dilution plate is made in 100% DMSO by 3-fold dilution of 10 mM stock solution of test compound. An intermediate dilution plate (10× final concentration) is made by diluting the compound dilution plate 50-fold in RPMI medium.
20 μL of the 10× final concentration compound is added to the cells and incubated for 1 hour at 37° C. before addition of trigger. No trigger conditions/trigger conditions are spiked with equal final DMSO concentrations of 0.2% DMSO. 20 μL of 10×LPS (final concentration 1 ng/mL) solution are added to all wells except for the ‘no trigger wells’ where 20 μL medium is added. Supernatant is collected after 18-20 h for IL-10 and TNFα determination using ELISA.
The plate is then washed once with PBST (PBS+0.05% Tween20) and once with PBS followed by the addition of 100 μL of blocking buffer (1% Bovine Serum Albumin (BSA)-5% Sucrose) and plates are sealed and incubated for at least 4 h at RT. After washing the plate once with PBST and once with PBS, 40 μL of standard or sample are added (TNFα standard curve is prepared using a 1/2 serial dilution starting from 16000 pg/mL; dilutions are made in dilution buffer (PBS+1% BSA)). Plates are washed twice with PBST, and once with PBS, after which 35 μL of the detection antibody is added (final concentration 0.25 μg/mL diluted in dilution buffer) and plates are incubated for at least 2 h at RT. Plates are washed twice with PBST, and once with PBS, where after 35 μL of Strep-HRP conjugate (0.5 μg/mL final concentration diluted in dilution buffer) is added. Plates are incubated in the dark, at RT for at least 45 min but no longer than 1 hour. Plates are washed twice with PBST, and once with PBS. Thereafter, 50 μL of luminol substrate is added to each well (prepared according to manufacturer's instructions), and incubated for 5 min at RT protected from light.
To measure the inhibition of LPS induced TNFα, percentage inhibition (PIN) values are calculated for all concentrations tested, compared to controls.
PIN values are plotted in concentration-response and EC50 values are derived using GraphPad Prism Software, applying 4-parameter nonlinear regression (sigmoidal) curve fitting.
The subject of experiment [5] is LPS-induced TNFα secretion in monocyte-derived macrophages (MdM). Nature of the experiment: MdM assay: LPS-triggered TNFα (ELISA). The format is cell-based, human. The settings on record: Homo sapiens, Macrophage, LPS-triggered TNFα inhibition. Put shortly:
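TNFα ELISA read on supernatants harvested 20 h after LPS (final 200 ng/mL) stimulation. Cells were day-10 macrophages derived from human blood CD14+ monocytes, exposed to 3-fold compound dilutions for 1 h at 37 °C beforehand, with DMSO held at 0.2%.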

The target of experiment [6] is T1, SIK1. The experiment is described as follows: biochemical. The settings on record: ADP-Glo SIK kinase assay. Put shortly:
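ADP-Glo, RT throughout. Enz/substrate + ATP, 120 min; ADP-Glo reagent 40 min (ATP depletion); detection reagent 30 min; luminescence read. Neg ctrl 1% DMSO, pos ctrl 10 μM staurosporine, final concs.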

The target of experiment [7] is T2, SIK2. The experiment is described as follows: biochemical. The settings on record: ADP-Glo SIK kinase assay. The essentials: (§2)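 ADP-Glo luminescent assay of ADP formed by SIK2 or SIK3 with substrate after ATP addition, 120 min at RT. Remaining ATP depleted 40 min, then ADP converted to ATP and read by luciferase luminescence after 30 min. Controls: 1% DMSO and 10 μM staurosporine (final).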

Experiment [8] has as its target T3, SIK3. The experiment is described as follows: biochemical. The settings on record: ADP-Glo SIK kinase assay. Put shortly: as §2
Experiment [9] relates to LPS triggered IL-10 secretion in monocyte-derived macrophages (MdM). The experiment is described as follows: MdM assay: LPS-triggered IL-10 (ELISA). The format is cell-based, human. The settings on record: maximal fold change vs LPS only, median across assays. Put shortly:
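Readout is IL-10FCmax, the median across at least two runs of the highest fold change over LPS-only, from ELISA absorbance at 450 nm of 2 h supernatants. Macrophages came from day-10 cultures of human CD14+ monocytes, were given compound for 1 h at 37° C in 0.2% DMSO, then 200 ng/mL LPS.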

Setting [10] is: 33P radioactive SIK kinase assay, AMARA peptide, 10 μM ATP, read-out: SIK1 IC50.

T1 sequence (P57059 whole entry): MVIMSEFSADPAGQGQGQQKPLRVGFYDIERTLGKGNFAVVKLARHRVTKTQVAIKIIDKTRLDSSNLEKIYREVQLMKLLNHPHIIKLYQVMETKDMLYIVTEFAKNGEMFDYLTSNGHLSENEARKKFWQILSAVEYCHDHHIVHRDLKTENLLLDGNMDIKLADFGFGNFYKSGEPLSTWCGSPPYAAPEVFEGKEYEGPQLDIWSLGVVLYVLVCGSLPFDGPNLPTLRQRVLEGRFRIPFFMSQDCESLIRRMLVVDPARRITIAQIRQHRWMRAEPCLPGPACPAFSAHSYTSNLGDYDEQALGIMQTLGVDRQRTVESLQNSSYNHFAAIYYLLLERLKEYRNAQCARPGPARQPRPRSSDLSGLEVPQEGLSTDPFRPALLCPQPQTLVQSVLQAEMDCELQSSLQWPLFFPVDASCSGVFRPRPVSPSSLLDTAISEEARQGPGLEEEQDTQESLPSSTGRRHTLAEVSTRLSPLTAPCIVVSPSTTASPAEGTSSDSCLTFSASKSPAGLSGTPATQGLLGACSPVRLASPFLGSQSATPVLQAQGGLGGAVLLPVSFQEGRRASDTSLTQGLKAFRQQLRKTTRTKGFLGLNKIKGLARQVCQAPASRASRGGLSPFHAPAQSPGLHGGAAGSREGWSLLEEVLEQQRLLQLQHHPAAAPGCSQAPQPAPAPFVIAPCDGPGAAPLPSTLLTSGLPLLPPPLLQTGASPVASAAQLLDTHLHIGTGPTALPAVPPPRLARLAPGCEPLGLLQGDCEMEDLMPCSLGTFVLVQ
T2 sequence (Q9H0K1 whole entry): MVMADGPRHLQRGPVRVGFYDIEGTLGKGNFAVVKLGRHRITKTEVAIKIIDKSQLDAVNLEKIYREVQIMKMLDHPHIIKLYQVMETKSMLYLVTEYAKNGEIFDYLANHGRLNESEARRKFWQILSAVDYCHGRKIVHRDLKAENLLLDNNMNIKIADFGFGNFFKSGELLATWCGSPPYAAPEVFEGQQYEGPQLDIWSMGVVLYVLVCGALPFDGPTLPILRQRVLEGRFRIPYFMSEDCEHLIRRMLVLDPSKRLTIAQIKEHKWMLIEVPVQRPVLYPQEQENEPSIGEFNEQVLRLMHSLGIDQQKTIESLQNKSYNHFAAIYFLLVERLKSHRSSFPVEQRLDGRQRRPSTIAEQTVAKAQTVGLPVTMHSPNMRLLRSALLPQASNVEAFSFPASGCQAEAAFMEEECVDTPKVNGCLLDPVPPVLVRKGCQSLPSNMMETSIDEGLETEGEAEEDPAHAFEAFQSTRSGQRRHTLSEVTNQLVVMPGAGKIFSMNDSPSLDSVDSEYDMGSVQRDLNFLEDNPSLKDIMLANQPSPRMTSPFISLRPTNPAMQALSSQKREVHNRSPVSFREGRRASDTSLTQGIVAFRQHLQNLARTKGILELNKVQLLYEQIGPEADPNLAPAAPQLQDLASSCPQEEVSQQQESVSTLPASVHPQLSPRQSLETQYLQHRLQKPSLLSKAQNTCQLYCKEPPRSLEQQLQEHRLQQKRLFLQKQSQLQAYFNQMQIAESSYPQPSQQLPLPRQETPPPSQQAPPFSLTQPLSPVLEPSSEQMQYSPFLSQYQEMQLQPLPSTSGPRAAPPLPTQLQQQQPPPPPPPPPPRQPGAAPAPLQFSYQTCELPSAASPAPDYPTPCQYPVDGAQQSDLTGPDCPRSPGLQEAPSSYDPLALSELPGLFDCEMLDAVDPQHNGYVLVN
T3 sequence (Q9Y2K2 whole entry): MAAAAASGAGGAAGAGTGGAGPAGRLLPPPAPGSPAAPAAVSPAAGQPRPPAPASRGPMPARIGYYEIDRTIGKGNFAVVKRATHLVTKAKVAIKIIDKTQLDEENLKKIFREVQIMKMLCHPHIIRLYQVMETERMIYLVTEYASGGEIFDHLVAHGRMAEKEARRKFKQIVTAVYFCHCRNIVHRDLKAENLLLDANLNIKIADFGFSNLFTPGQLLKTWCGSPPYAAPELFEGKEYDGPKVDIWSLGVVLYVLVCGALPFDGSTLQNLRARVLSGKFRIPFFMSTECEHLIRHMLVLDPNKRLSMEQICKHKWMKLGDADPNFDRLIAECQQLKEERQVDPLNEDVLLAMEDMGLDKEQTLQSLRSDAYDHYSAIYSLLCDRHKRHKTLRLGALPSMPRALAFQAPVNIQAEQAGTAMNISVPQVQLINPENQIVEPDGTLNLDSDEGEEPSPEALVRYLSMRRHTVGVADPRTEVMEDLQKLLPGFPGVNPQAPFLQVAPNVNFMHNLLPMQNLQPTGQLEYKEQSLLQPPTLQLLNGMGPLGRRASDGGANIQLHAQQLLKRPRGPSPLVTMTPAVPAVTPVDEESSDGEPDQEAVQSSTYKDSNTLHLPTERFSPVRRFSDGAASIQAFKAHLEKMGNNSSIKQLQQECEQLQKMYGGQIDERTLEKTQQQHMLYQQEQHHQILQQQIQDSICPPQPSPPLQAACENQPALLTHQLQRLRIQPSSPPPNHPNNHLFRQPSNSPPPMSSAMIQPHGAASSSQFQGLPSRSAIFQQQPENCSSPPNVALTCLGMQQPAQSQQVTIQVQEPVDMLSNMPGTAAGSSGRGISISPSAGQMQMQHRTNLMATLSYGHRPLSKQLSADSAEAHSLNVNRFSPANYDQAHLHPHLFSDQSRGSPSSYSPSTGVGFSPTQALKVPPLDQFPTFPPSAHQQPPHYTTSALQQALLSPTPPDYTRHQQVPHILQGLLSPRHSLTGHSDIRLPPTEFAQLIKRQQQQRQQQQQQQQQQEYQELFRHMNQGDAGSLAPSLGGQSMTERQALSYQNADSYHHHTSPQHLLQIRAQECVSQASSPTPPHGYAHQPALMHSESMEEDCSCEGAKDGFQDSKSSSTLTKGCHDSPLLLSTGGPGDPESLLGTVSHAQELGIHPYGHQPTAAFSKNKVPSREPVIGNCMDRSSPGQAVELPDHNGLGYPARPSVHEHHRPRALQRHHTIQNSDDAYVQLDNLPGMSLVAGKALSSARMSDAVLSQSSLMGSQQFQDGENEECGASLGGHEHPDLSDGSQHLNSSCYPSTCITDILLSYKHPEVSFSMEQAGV

`COc1cc(-n2cnc3cc(-c4cnn(C5CNC5)c4)ccc32)cc(OC)c1C(=O)NCC(F)(F)F` [Cpd 94, 4-[5-[1-(azetidin-3-yl)pyrazol-4-yl]benzimidazol-1-yl]-2,6-dimethoxy-N-(2,2,2-trifluoroethyl)benzamide]: the IC50 in [1] (setting [10]), in experiment [2] and in experiment [3] was 0.01 to 10 nM in each case. Also, the values for the half-maximal effective concentration (EC50) in experiment [4] and in experiment [5] were 0.1 to 100 nM and 100 to 1000 nM, respectively.
Regarding `COc1cc(-n2cnc3cc(-c4cnn(C5CN(CC#N)C5)c4)ccc32)cc(OC)c1C(=O)NCC(F)(F)F` [Cpd 100, 4-[5-[1-[1-(cyanomethyl)azetidin-3-yl]pyrazol-4-yl]benzimidazol-1-yl]-2,6-dimethoxy-N-(2,2,2-trifluoroethyl)benzamide], the IC50 in experiment [1] (setting [10]) was in the range of 10 to 100 nM; in [2], 0.01 to 10 nM; in experiment [3], 0.01 to 10 nM. In addition, the EC50 in experiment [4] lay in the range of 0.1 to 100 nM; in experiment [5], 100 to 1000 nM.
Regarding `COc1cc(-n2cnc3cc(-c4cnn(CC(C)C)c4)ccc32)cc(OC)c1C(=O)NCC(F)(F)F` [Cpd 110, 4-[5-(1-isobutylpyrazol-4-yl)benzimidazol-1-yl]-2,6-dimethoxy-N-(2,2,2-trifluoroethyl)benzamide], the figures for the IC50 in experiment [1] (setting [10]), in experiment [2] and in experiment [3] were 10 to 100 nM, 0.01 to 10 nM and 0.01 to 10 nM, respectively. For the same compound, the values for the EC50 in experiment [4] and in experiment [5] were 0.1 to 100 nM and 100 to 1000 nM, respectively.
In the case of `CNc1cc(-c2cnc3cc(-c4cnn(C)c4)ccn23)cc(OC)c1C(=O)NCC(F)(F)F` [Cpd 204], the IC50 in experiment [1] (setting [10]), in experiment [2], in experiment [3], in experiment [6], in experiment [7] and in experiment [8] was 0.01 to 10 nM throughout. The same compound yielded an EC50 in [5] of 0.1 to 100 nM. In addition, the “IL-10 FCmax median” value in experiment [9] is listed as “++ (>1.5-4.5)”.
Turning to `COc1cc(-c2cnc3cc(-c4cnn(C)c4)ccn23)cc2c1C(=O)N(CC(F)(F)F)CC2` [Cpd 225, 8-methoxy-6-[7-(1-methylpyrazol-4-yl)imidazo[1,2-a]pyridin-3-yl]-2-(2,2,2-trifluoroethyl)-3,4-dihydroisoquinolin-1-one], the IC50 in experiment [1] (setting [10]) was in the range of 10 to 100 nM; in experiment [2] it was 0.01 to 10 nM; in experiment [3], 0.01 to 10 nM; in [6], 0.01 to 10 nM; in [7], 0.01 to 10 nM; in [8] it was 0.01 to 10 nM. For the same compound, the EC50 in experiment [5] is 0.1 to 100 nM. The “IL-10 FCmax median” value in experiment [9] is recorded as “++ (>1.5-4.5)”.
`COc1cc(-n2cnc3cc(-c4cnn(C(C)C)c4)ccc32)cc(OC)c1C(=O)NCC(F)(F)F` [compound 95, 4-[5-(1-isopropylpyrazol-4-yl)benzimidazol-1-yl]-2,6-dimethoxy-N-(2,2,2-trifluoroethyl)benzamide]: the IC50 was in the range of 10 to 100 nM in experiment [1], 0.01 to 10 nM in [2] and 0.01 to 10 nM in [3]. For the same compound, the EC50 in [4] and in [5] was 0.1 to 100 nM each time.
Consider `COc1cc(-n2cnc3cc(-c4cnn(C(F)F)c4)ccc32)cc(OC)c1C(=O)NCC(F)(F)F` [compound 97, 4-[5-[1-(difluoromethyl)pyrazol-4-yl]benzimidazol-1-yl]-2,6-dimethoxy-N-(2,2,2-trifluoroethyl)benzamide], for which the half-inhibitory concentration (IC50) lay in the range of 10 to 100 nM in experiment [1] (setting [10]), 0.01 to 10 nM in [2] and 0.01 to 10 nM in experiment [3]. Further, the EC50 in [4] and in experiment [5] was 0.1 to 100 nM in each case.
`COc1cc(-c2cnc3cc(-c4cnn(C)c4)ccn23)cc(OC)c1C(=O)NCC(F)F` [compound 133, N-(2,2-difluoroethyl)-2,6-dimethoxy-4-[7-(1-methylpyrazol-4-yl)imidazo[1,2-a]pyridin-3-yl]benzamide]: the IC50 in [1] (setting [10]), in experiment [2], in experiment [3], in [6], in experiment [7] and in experiment [8] was 0.01 to 10 nM in each case. The compound also had an EC50 in experiment [5] of 0.1 to 100 nM. Further, the “IL-10 FCmax median” value in experiment [9] was “++ (>1.5-4.5)”.
As for `COc1cc(-n2cnc3cc(-c4cnn(C)c4)ccc32)cc(OC)c1C(=O)N1CC(F)(F)C1` [compound 142, (3,3-difluoroazetidin-1-yl)-[2,6-dimethoxy-4-[5-(1-methylpyrazol-4-yl)benzimidazol-1-yl]phenyl]methanone], the IC50 in experiment [1] (setting [10]), in experiment [2], in experiment [3], in experiment [6], in experiment [7] and in [8] was 10 to 100 nM each time. Besides, in experiment [5], the EC50 fell in the range of 100 to 1000 nM. Further, the “IL-10 FCmax median” value in experiment [9] is given as “++ (>1.5-4.5)”.
With `COc1cc(-c2cnc3cc(-c4cn(C)cn4)ccn23)cc(OC)c1C(=O)N[C@H](C)C(F)(F)F` [compound 215, 2,6-dimethoxy-4-[7-(1-methylimidazol-4-yl)imidazo[1,2-a]pyridin-3-yl]-N-[(1R)-2,2,2-trifluoro-1-methyl-ethyl]benzamide], the IC50 lay in the range of 10 to 100 nM in [1] (setting [10]); 0.01 to 10 nM in [2]; 0.01 to 10 nM in experiment [3]; 10 to 100 nM in experiment [6]; 0.01 to 10 nM in [7]; 0.01 to 10 nM in experiment [8]. The EC50 in experiment [5] was 100 to 1000 nM. Moreover, the “IL-10 FCmax median” value in [9] is on record as “++ (>1.5-4.5)”.
On to `COc1cc(-c2cnc3cc(-c4cn[nH]c4)ccn23)cc(OC)c1C(=O)NCC(F)(F)F` [compound 227, 2,6-dimethoxy-4-[7-(1H-pyrazol-4-yl)imidazo[1,2-a]pyridin-3-yl]-N-(2,2,2-trifluoroethyl)benzamide], for which the IC50 in experiment [1] (setting [10]), in experiment [2], in experiment [3], in experiment [6], in [7] and in [8] was 0.01 to 10 nM throughout. The compound further returned an EC50 in experiment [5] of 0.1 to 100 nM. Further, the “IL-10 FCmax median” value in [9] is listed as “+++ (>4.5)”.
With `CCOC(=O)Cn1cc(-c2ccn3c(-c4cc(OC)c(C(=O)NCC(F)(F)F)c(OC)c4)cnc3c2)cn1` [compound 230, ethyl 2-[4-[3-[3,5-dimethoxy-4-(2,2,2-trifluoroethyl-carbamoyl)phenyl]imidazo[1,2-a]pyridin-7-yl]pyrazol-1-yl]acetate], the IC50 in experiment [1] (setting [10]), in experiment [2], in experiment [3], in experiment [6], in [7] and in experiment [8] was 0.01 to 10 nM in each case. Besides, in experiment [5], the EC50 fell in the range of 0.1 to 100 nM. For the same compound, the “IL-10 FCmax median” value in experiment [9] was “+++ (>4.5)”.
With `CCOC(=O)C(C)n1cc(-c2ccn3c(-c4cc(OC)c(C(=O)NCC(F)(F)F)c(OC)c4)cnc3c2)cn1` (stereo not drawn) [compound 263, ethyl 2-[4-[3-[3,5-dimethoxy-4-(2,2,2-trifluoroethyl-carbamoyl)phenyl]imidazo[1,2-a]pyridin-7-yl]pyrazol-1-yl]propanoate], the IC50 in [1] (setting [10]), in experiment [2], in experiment [3], in [6], in experiment [7] and in [8] was 0.01 to 10 nM in each case. This compound showed an EC50 in experiment [5] of 0.1 to 100 nM. Besides, the “IL-10 FCmax median” value in [9] is “++ (>1.5-4.5)”.
Take `COc1cc(-c2cnc3cc(-c4cnn(C)c4)ccn23)cc(OCCO)c1C(=O)NC1CC1` [compound 279, N-cyclopropyl-2-(2-hydroxyethoxy)-6-methoxy-4-[7-(1-methylpyrazol-4-yl)imidazo[1,2-a]pyridin-3-yl]benzamide]: the IC50 in experiment [6], in [7] and in experiment [8] was 0.01 to 10 nM in each case. For the same compound, the EC50 in experiment [5] fell in the range of 100 to 1000 nM. The “IL-10 FCmax median” value in experiment [9] is recorded as “++ (>1.5-4.5)”.
As for `COc1ccc(-c2ccn3c(-c4cc(OC)c(C(=O)NC5CC5)c(OC(F)F)c4)cnc3c2)nn1` [compound 280, N-cyclopropyl-2-(difluoromethoxy)-6-methoxy-4-[7-(6-methoxypyridazin-3-yl)imidazo[1,2-a]pyridin-3-yl]benzamide], the IC50 in [6], in [7] and in [8] was 0.01 to 10 nM each time. The same compound came in with a concentration for a half-maximal effect (EC50) in experiment [5] of 0.1 to 100 nM. The “IL-10 FCmax median” value in [9] was “++ (>1.5-4.5)”.
